According to PubChem BioAssay (NCI):
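Test compounds were applied to cells in 96-well plates for 48 hours at 5 doses. Here, GI50 denotes the concentration required for 50% inhibition of growth. TGI: total growth inhibition.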

Experiments:
Test in all cases: NCI anticancer screen, dose series, 48 h
OVCAR-8 ovarian = test system: OVCAR-8 ovarian
RXF 393 renal = test system: RXF 393 renal
OVCAR-3 ovarian = test system: OVCAR-3 ovarian
NCI/ADR-RES ovarian = test system: NCI/ADR-RES ovarian
U251 CNS = test system: U251 CNS
UACC-62 melanoma = test system: UACC-62 melanoma
A549 NSCLC = test system: A549 NSCLC
HOP-62 NSCLC = test system: HOP-62 NSCLC
MALME-3M melanoma = test system: MALME-3M melanoma
RPMI-8226 leukemia = test system: RPMI-8226 leukemia
UACC-257 melanoma = test system: UACC-257 melanoma
CCRF-CEM leukemia = test system: CCRF-CEM leukemia
UO-31 renal = test system: UO-31 renal
HCC-2998 colon = test system: HCC-2998 colon
M14 melanoma = test system: M14 melanoma
SN12C renal = test system: SN12C renal
OVCAR-5 ovarian = test system: OVCAR-5 ovarian
SNB-75 CNS = test system: SNB-75 CNS
PC-3 prostate = test system: PC-3 prostate
SR leukemia = test system: SR leukemia
MCF7 breast = test system: MCF7 breast
SW-620 colon = test system: SW-620 colon
CAKI-1 renal = test system: CAKI-1 renal
HS 578T breast = test system: HS 578T breast
SF-295 CNS = test system: SF-295 CNS
SK-OV-3 ovarian = test system: SK-OV-3 ovarian
NCI-H522 lung = test system: NCI-H522 lung
A498 renal = test system: A498 renal
DU-145 prostate = test system: DU-145 prostate
SNB-19 CNS = test system: SNB-19 CNS
HCT-15 colon = test system: HCT-15 colon
MOLT-4 leukemia = test system: MOLT-4 leukemia
HT29 colon = test system: HT29 colon
HOP-92 NSCLC = test system: HOP-92 NSCLC
T-47D breast = test system: T-47D breast
786-0 renal = test system: 786-0 renal
OVCAR-4 ovarian = test system: OVCAR-4 ovarian
SK-MEL-2 melanoma = test system: SK-MEL-2 melanoma
KM12 colon = test system: KM12 colon
SF-539 CNS = test system: SF-539 CNS
BT-549 breast = test system: BT-549 breast
NCI-H226 lung = test system: NCI-H226 lung
MDA-MB-435 = test system: MDA-MB-435
HCT-116 colon = test system: HCT-116 colon
ACHN renal = test system: ACHN renal
IGROV1 ovarian = test system: IGROV1 ovarian
MDA-MB-231 breast = test system: MDA-MB-231 breast
HL-60(TB) leukemia = test system: HL-60(TB) leukemia
COLO 205 colon = test system: COLO 205 colon
NCI-H23 lung = test system: NCI-H23 lung
K-562 leukemia = test system: K-562 leukemia
SF-268 CNS = test system: SF-268 CNS
NCI-H460 lung = test system: NCI-H460 lung
TK-10 renal = test system: TK-10 renal
LOX IMVI melanoma = test system: LOX IMVI melanoma
SK-MEL-5 melanoma = test system: SK-MEL-5 melanoma
SK-MEL-28 melanoma = test system: SK-MEL-28 melanoma

Question: What does the source list for `CC(C)(C)c1[nH]nc2c1C(c1cc3ccccc3[nH]c1=O)Nc1cc(C(=O)Nc3ccc(Cl)cc3)ccc1N2` (centres undefined)?
Answer: GI50 (OVCAR-8 ovarian): 3.04 µM; TGI (OVCAR-8 ovarian): 11 µM; GI50 (RXF 393 renal): 1.94 µM; TGI (RXF 393 renal): 3.7 µM; GI50 (OVCAR-3 ovarian): 1.93 µM; TGI (OVCAR-3 ovarian): 3.82 µM; GI50 (NCI/ADR-RES ovarian): > 100 µM; TGI (NCI/ADR-RES ovarian): > 100 µM; GI50 (U251 CNS): 3.08 µM; TGI (U251 CNS): 11.4 µM; GI50 (UACC-62 melanoma): 2.03 µM; TGI (UACC-62 melanoma): 4.41 µM; GI50 (A549 NSCLC): 4.66 µM; TGI (A549 NSCLC): > 100 µM; GI50 (HOP-62 NSCLC): 3.14 µM; TGI (HOP-62 NSCLC): 10 µM; GI50 (MALME-3M melanoma): 1.92 µM; TGI (MALME-3M melanoma): 4.41 µM; GI50 (RPMI-8226 leukemia): 1.9 µM; TGI (RPMI-8226 leukemia): 5.27 µM; GI50 (UACC-257 melanoma): 2.33 µM; TGI (UACC-257 melanoma): 7.31 µM; GI50 (CCRF-CEM leukemia): 2.16 µM; TGI (CCRF-CEM leukemia): > 21.6 µM; GI50 (UO-31 renal): 46 µM; TGI (UO-31 renal): > 100 µM; GI50 (HCC-2998 colon): 2.64 µM; TGI (HCC-2998 colon): 6.52 µM; GI50 (M14 melanoma): 2.12 µM; TGI (M14 melanoma): 4.75 µM; GI50 (SN12C renal): 3.15 µM; TGI (SN12C renal): 14 µM; GI50 (OVCAR-5 ovarian): 3.84 µM; TGI (OVCAR-5 ovarian): 39 µM; GI50 (SNB-75 CNS): 2.27 µM; TGI (SNB-75 CNS): 6.51 µM; GI50 (PC-3 prostate): 3.15 µM; TGI (PC-3 prostate): 11.7 µM; GI50 (SR leukemia): 2.56 µM; TGI (SR leukemia): > 24.9 µM; GI50 (MCF7 breast): 2.55 µM; TGI (MCF7 breast): 15.3 µM; GI50 (SW-620 colon): 3.13 µM; TGI (SW-620 colon): 12.3 µM; GI50 (CAKI-1 renal): > 100 µM; TGI (CAKI-1 renal): > 100 µM; GI50 (HS 578T breast): 2.38 µM; TGI (HS 578T breast): > 28.8 µM; GI50 (SF-295 CNS): 2.77 µM; TGI (SF-295 CNS): 8.82 µM; GI50 (SK-OV-3 ovarian): 3.04 µM; TGI (SK-OV-3 ovarian): 8.01 µM; GI50 (NCI-H522 lung): 2.71 µM; TGI (NCI-H522 lung): 6.94 µM; GI50 (A498 renal): 1.58 µM; TGI (A498 renal): 3.8 µM; GI50 (DU-145 prostate): 4.26 µM; TGI (DU-145 prostate): > 48.4 µM; GI50 (SNB-19 CNS): 2.68 µM; TGI (SNB-19 CNS): 11.9 µM; GI50 (HCT-15 colon): > 28.8 µM; TGI (HCT-15 colon): > 100 µM; GI50 (MOLT-4 leukemia): 2.32 µM; TGI (MOLT-4 leukemia): 7.91 µM; GI50 (HT29 colon): 3.46 µM; TGI (HT29 colon): 13 µM; GI50 (HOP-92 NSCLC): 2.03 µM; TGI (HOP-92 NSCLC): 6.05 µM; GI50 (T-47D breast): 2.5 µM; TGI (T-47D breast): 9.14 µM; GI50 (786-0 renal): 2.3 µM; TGI (786-0 renal): 5.54 µM; GI50 (OVCAR-4 ovarian): 2.12 µM; TGI (OVCAR-4 ovarian): 6.96 µM; GI50 (SK-MEL-2 melanoma): 2 µM; TGI (SK-MEL-2 melanoma): 4.05 µM; GI50 (KM12 colon): 3.33 µM; TGI (KM12 colon): 16.2 µM; GI50 (SF-539 CNS): 2.34 µM; TGI (SF-539 CNS): 6.49 µM; GI50 (BT-549 breast): 2.37 µM; TGI (BT-549 breast): 6.65 µM; GI50 (NCI-H226 lung): 2.94 µM; TGI (NCI-H226 lung): 11.1 µM; GI50 (MDA-MB-435): 1.84 µM; TGI (MDA-MB-435): 4.84 µM; GI50 (HCT-116 colon): 3.11 µM; TGI (HCT-116 colon): 10.7 µM; GI50 (ACHN renal): 4.71 µM; TGI (ACHN renal): > 64.7 µM; GI50 (IGROV1 ovarian): 3.28 µM; TGI (IGROV1 ovarian): 8.95 µM; GI50 (MDA-MB-231 breast): 2.26 µM; TGI (MDA-MB-231 breast): 6.32 µM; GI50 (HL-60(TB) leukemia): 2.33 µM; TGI (HL-60(TB) leukemia): 5.64 µM; GI50 (COLO 205 colon): 2.88 µM; TGI (COLO 205 colon): 6.46 µM; GI50 (NCI-H23 lung): 2.6 µM; TGI (NCI-H23 lung): 7.31 µM; GI50 (K-562 leukemia): 2.94 µM; TGI (K-562 leukemia): > 54.9 µM; GI50 (SF-268 CNS): 3.66 µM; TGI (SF-268 CNS): 29.5 µM; GI50 (NCI-H460 lung): 3.21 µM; TGI (NCI-H460 lung): 18.2 µM; GI50 (TK-10 renal): 3.71 µM; TGI (TK-10 renal): 17.2 µM; GI50 (LOX IMVI melanoma): 2.98 µM; TGI (LOX IMVI melanoma): 9.21 µM; GI50 (SK-MEL-5 melanoma): 1.77 µM; TGI (SK-MEL-5 melanoma): 3.55 µM; GI50 (SK-MEL-28 melanoma): 3.76 µM; TGI (SK-MEL-28 melanoma): 21.5 µM
